The record followed here is the supplement of paper PMC7801607.

SMILES strings stand for the structures. Where only a bound is given, the exact number is not on record here.

Experiment [1] concerns Plasmodium falciparum NF54 asexual blood stage.
The test system of experiment [2] is Plasmodium falciparum NF54 stage IV/V gametocytes. On the procedure:
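Dose-response IC50s: P. falciparum NF54 asexual (pLDH, 72 h; 6 means >6 µM), Dd2 asexual (SYBR Green I, 72 h, 1536-well; 5 means >5 µM), NF54 stage IV/V gametocytes (luciferase 48 h, ATP 24 h, PrestoBlue 48 h), P. berghei liver stage in HepG2-A16-CD81 (luciferase, 48 h; 5 means >5 µM), HepG2 CC50 (CellTiter-Glo; 5 means >5 µM).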

Experiment [3] deals with Plasmodium falciparum Dd2 asexual blood stage.

As a reminder, the IC50 is the midpoint of a concentration-inhibition curve. Read a high IC50 as weaker potency in that assay. Molecule `C[Si]1(C)CCN(Cc2cc(-c3ccc(Cl)cc3)n(-c3ccc(Cl)cc3)n2)CC1` came in with an IC50 in experiment [1] greater than 6 µM. Further, the “IC50 (ATP bioluminescence)” value in experiment [2] was 1.29 µM.

Take `CC1CCc2c(N3CCC(O)CC3)c(F)cc3c(=O)c(C(=O)O)cn1c23` (configuration not stated): the values for the IC50 in experiment [3] and in experiment [1] were greater than 5 µM and greater than 6 µM, respectively.

`CCC(C)(C)c1ccc(CC(C)CN2C[C@@H](C)O[C@@H](C)C2)cc1` (some centres not stated): the IC50 in experiment [3] was greater than 5 µM; in experiment [1], 2.11 µM.

On to `Nc1nc(F)nc2c1ncn2[C@H]1O[C@@H](CO)[C@H](O)[C@@H]1O`, for which the IC50 in experiment [3] is greater than 5 µM; in experiment [1], 2.3 µM.

As for `Oc1c(C(Nc2ccccn2)c2ccccc2)ccc2cccnc12` (configuration not stated), the concentration for half-maximal inhibition (IC50) in experiment [3] was greater than 5 µM; in experiment [1], 5.04 µM.

For the molecule `CC(C)Cn1c(=O)n(C)c(=O)c2c(-c3cncn3C)n(Cc3cccc4ccccc34)nc21`, the IC50 is greater than 5 µM in experiment [3] and greater than 6 µM in experiment [1].

Turning to `Cc1c(OCC(F)(F)F)ccnc1CS(=O)c1nc2ccccc2[nH]1` (configuration not stated), the half-maximal inhibitory concentration (IC50) in experiment [3] is greater than 5 µM; in experiment [1] it was greater than 6 µM.

Consider `C=C[C@]1(C)C[C@@H](OC(=O)CS[C@@H]2C[C@H]3CC[C@@H](C2)N3C)[C@]2(C)[C@H](C)CC[C@]3(CCC(=O)[C@H]32)[C@@H](C)[C@@H]1O`, for which the results for the half-maximal inhibitory concentration (IC50) in experiment [3] and in experiment [1] were greater than 5 µM and greater than 6 µM, respectively.

On to `COc1ccc2cc3[n+](cc2c1OCCN(CCn1cncn1)Cc1ccc(F)cc1F)CCc1cc2c(cc1-3)OCO2`, for which the IC50 in experiment [3] was greater than 5 µM; in experiment [1] it was 0.138 µM.

As to `C[C@@H](NC(=O)c1cccc(-c2c[nH]c(-c3cc4ccccc4cn3)n2)c1)c1ccc(F)cc1`, the IC50 in experiment [3] is greater than 5 µM. For the same molecule, the “IC50 (ATP bioluminescence)” value in experiment [2] is 1.1 µM.

On to `CCCCc1ccc(C(=O)O)nc1`, for which the IC50 in experiment [3] is greater than 5 µM; in experiment [1], greater than 6 µM.

Take `COc1ccc(CNC(=O)C2CCN([C@H](C)c3cccc4ccccc34)CC2)cc1`: the figures for the 50% inhibitory concentration (IC50) in experiment [3] and in experiment [1] were greater than 5 µM and greater than 6 µM, respectively.

For the molecule `Cc1ccc(NC(=O)c2ccc(CN3CCN(C)CC3)cc2)cc1Nc1nccc(-c2cccnc2)n1`, the IC50 in experiment [3] is greater than 5 µM; in experiment [1], 2.55 µM.

The molecule `Clc1ccc(Cn2c(CN3CCCC3)nc3ccccc32)cc1` registered an IC50 in experiment [3] greater than 5 µM. In addition, the “IC50 (ATP bioluminescence)” value in experiment [2] is 5.86 µM.

`CCOCc1nc2c(N)nc3ccccc3c2n1CC(C)(C)O`: the IC50 in experiment [3] was greater than 5 µM; in experiment [1], greater than 6 µM.

`OC1O[C@H](CSc2ccc(F)cc2)[C@@H](O)[C@H]1O` (some centres not stated): the half-maximal inhibitory concentration (IC50) was greater than 5 µM in experiment [3] and 0.825 µM in experiment [1].

For the molecule `CCOc1noc2cc(OCCC3CCN(c4ccc(C)nn4)CC3)ccc12`, the half-maximal inhibitory concentration (IC50) in experiment [3] is greater than 5 µM; in experiment [1] it was greater than 6 µM.

As for `Cc1oncc1C(=O)Nc1ccc(C(F)(F)F)cc1`, the half-inhibitory concentration (IC50) was greater than 5 µM in experiment [3] and greater than 6 µM in experiment [1].

Take `NCC(=O)Nc1ccc(-n2nc(C(F)(F)F)cc2-c2ccc3c(ccc4ccccc43)c2)cc1`: in experiment [3], the IC50 is greater than 5 µM. In addition, in experiment [2], the “IC50 (ATP bioluminescence)” value was 1.2 µM.

In the case of `Nc1cnn(C2OC(CO)C(O)C2O)c(=O)n1` (configuration not stated), the IC50 was greater than 5 µM in experiment [3] and greater than 6 µM in experiment [1].

In the case of `CC(C)=CCC/C(C)=C/CNCCNC1C2CC3CC(C2)CC1C3` (configuration not stated), the IC50 in experiment [3] is greater than 5 µM. Further, the “IC50 (ATP bioluminescence)” value in experiment [2] is 0.474 µM.

Turning to `Cc1ccc(NC(=O)c2cc(Cl)ccc2O)cc1`, the values for the 50% inhibitory concentration (IC50) in experiment [3] and in experiment [1] were greater than 5 µM and greater than 6 µM, respectively.

Take `COc1ccc(CNC(=O)C(NS(=O)(=O)c2ccc3nc(C)sc3c2)C(C)C)cc1` (configuration not stated): the concentration for half-maximal inhibition (IC50) in experiment [3] was greater than 5 µM; in experiment [1] it was greater than 6 µM.

As for `CCC[C@@H]1C[C@@H](C(=O)N[C@@H]([C@H]2O[C@H](SC)[C@H](O)[C@@H](O)[C@H]2O)[C@H](C)Cl)N(C)C1`, the half-inhibitory concentration (IC50) in experiment [3] is greater than 5 µM; in experiment [1], greater than 6 µM.

In turn, `COc1cc(NS(=O)(=O)c2ccc(C)cc2)c2ncccc2c1` displayed an IC50 in experiment [3] greater than 5 µM. Moreover, in experiment [2], the “IC50 (ATP bioluminescence)” value was 2.75 µM.

In the case of `Nc1cc(N)c2nc(-c3ccccc3)c(Nc3ccc(F)cc3)nc2c1`, the IC50 stood at 4.09 µM in experiment [3] and 2.16 µM in experiment [1].

`CC(C)Nc1nc2cc(Cl)c(Cl)cc2n1[C@H]1O[C@@H](CO)[C@H](O)[C@@H]1O`: the results for the half-maximal inhibitory concentration (IC50) in experiment [3] and in experiment [1] were greater than 5 µM and greater than 6 µM, respectively.

Regarding `CN(C)[C@@H]1C(=O)C(C(N)=O)=C(O)[C@@]2(O)C(=O)C3=C(O)c4c(O)c(NC(=O)CN5CCCC5)cc(F)c4C[C@H]3C[C@@H]12`, the IC50 in experiment [3] is greater than 5 µM; in experiment [1], 1.5 µM.

As to `CC1CN(c2ncnc3c2c(-c2ccccc2)cn3-c2ccc(F)cc2)CC(C)O1` (configuration not stated), the IC50 in experiment [3] was greater than 5 µM; in experiment [1], 1.58 µM.

`O=[N+]([O-])c1ccc2c(CCc3c[nH]c4ccccc34)c[nH]c2c1`: the figures for the half-inhibitory concentration (IC50) in experiment [3] and in experiment [1] were greater than 5 µM and 0.687 µM, respectively.

Consider `CCc1nc(N)nc(N)c1C#CCc1ccccc1`, for which the half-maximal inhibitory concentration (IC50) in experiment [3] was greater than 5 µM; in experiment [1], 0.703 µM.

In experiment [3], `CC(C)c1ccc(COc2cccc(-c3cc(S(C)=O)c(C#N)c(=O)[nH]3)c2)cc1` (configuration not stated) displayed a half-maximal inhibitory concentration (IC50) greater than 5 µM. Besides, the “IC50 (ATP bioluminescence)” value in experiment [2] worked out at 0.95 µM.

On to `COc1ccc(SC(=O)N[C@H](CCC(=O)O)C(=O)O)cc1`, for which the IC50 in experiment [3] is greater than 5 µM; in experiment [1] it was greater than 6 µM.

As to `CC(C)(C)NC(=O)[C@@H]1CN(Cc2cnc3occc3c2)CCN1C[C@@H](O)C[C@@H](Cc1ccccc1)C(=O)N[C@H]1c2ccccc2C[C@H]1O`, the concentration for half-maximal inhibition (IC50) worked out at 2.29 µM in experiment [3] and 2.85 µM in experiment [1].

With `Fc1ccc(-c2nc(-c3c[nH]c4ccc(Br)cc34)[nH]c2-c2ccc(F)cc2)cc1`, the IC50 in experiment [3] came out at 4.99 µM; in experiment [1], 0.765 µM.

For `Cn1cncc1[C@@](N)(c1ccc(Cl)cc1)c1ccc2c(c1)c(-c1cccc(Cl)c1)cc(=O)n2C`, the values for the IC50 in experiment [3] and in experiment [1] were greater than 5 µM and 3.65 µM, respectively.

For the molecule `COc1ccc2nc(-c3ccccc3)cc(O)c2c1`, the IC50 in experiment [3] worked out at 1.01 µM; in experiment [1] it was 1.78 µM.

Turning to `O=C(Nc1nnc(-c2ccccc2)o1)c1ccc(F)cc1`, the half-inhibitory concentration (IC50) was greater than 5 µM in experiment [3] and 0.472 µM in experiment [1].

Regarding `CCCCc1ccc(S(=O)(=O)Nc2cc(C)on2)cc1`, the IC50 in experiment [3] was greater than 5 µM; in experiment [1], greater than 6 µM.

Take `O=C(NCc1ccc(F)cc1)c1c(O)c2ncccc2[nH]c1=O`: the IC50 in experiment [3] was greater than 5 µM; in experiment [1], greater than 6 µM.

For the molecule `O=C(c1ccccc1)N1CCN(c2ccccc2NC(=O)C(Cl)(Cl)Cl)CC1`, the IC50 in experiment [3] was greater than 5 µM; in experiment [1] it was 2.12 µM.

`CCc1cc(O)c(Oc2ccc(C(N)=O)cc2F)cc1F`: the values for the IC50 in experiment [3] and in experiment [1] were greater than 5 µM and 5.84 µM, respectively.

Take `CCCCCc1ccc(C(=O)NCCn2cc(CCCCCc3cnc(N)[nH]3)nn2)cc1`: the IC50 in experiment [3] is greater than 5 µM; in experiment [1], greater than 6 µM.

Consider `Cc1ccc(S(=O)(=O)Nc2cccc3cccnc23)cc1`, for which the figures for the half-inhibitory concentration (IC50) in experiment [3] and in experiment [1] were greater than 5 µM and 5.1 µM, respectively.

Regarding `O=C(Nc1nnc(-c2ccc(Cl)cc2)o1)c1nc2ccccc2s1`, the concentration for half-maximal inhibition (IC50) was greater than 5 µM in experiment [3] and greater than 6 µM in experiment [1].

Take `C=CCN(C(=O)OCc1ccc([N+](=O)[O-])cc1)C1CCN(CC[C@](C)(CN(C)S(=O)(=O)c2ccccc2)c2ccccc2)CC1`: the figures for the IC50 in experiment [3] and in experiment [1] were greater than 5 µM and greater than 6 µM, respectively.
